How the values were obtained:
[1] = molecular target: T1, recombinant human FLAP protein (Homo sapiens, UniProt P20292); experiment: FLAP binding assay (Scintillation Proximity Assay, displacement of [125I]L-691,831); conditions: for IC50: read-out: FLAP SPA IC50
T1 construct: made in house; host or cells: Sf9 insect cells (100,000xg membrane fraction used)
T1 sequence (P20292 1-161): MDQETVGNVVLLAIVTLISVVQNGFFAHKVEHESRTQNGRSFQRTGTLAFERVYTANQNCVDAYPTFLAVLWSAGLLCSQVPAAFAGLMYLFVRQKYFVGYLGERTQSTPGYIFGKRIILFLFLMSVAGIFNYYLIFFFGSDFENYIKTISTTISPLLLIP
Description: Compounds are assessed for the ability to bind to FLAP in a binding assay that measures compound-specific displacement of an iodinated (^125I) FLAP inhibitor via a Scintillation Proximity Assay format (adapted from S. Charleson et al., Mol. Pharmacol., 1992, 41, 873-879).
Cell pellets produced from sf9 insect cells expressing recombinant human FLAP protein are resuspended in buffer A [15 mM Tris-HCl (pH 7.5), 2 mM MgCl2, 0.3 mM EDTA, 1 mM PMSF]. The cells are lysed with a Dounce homogenizer and the material is centrifuged at 10,000×g for 10 minutes. The supernatant is then collected and centrifuged at 100,000×g for 60 minutes. To prepare membrane protein for an assay, an aliquot of the 100,000×g pellet is resuspended in 1 ml of buffer A, Dounce homogenized, and finally subjected to polytron mixing (30 seconds). Membrane protein (25 μl, 5 μg) is mixed with WGA SPA beads (Amersham) and stirred for 1 h. […] (final concentrations: beads, 200 μg/well; protein, 5 μg/well; [^125I] probe, 0.08 nM/well (17 nCi/well). The plates are shaken for 2 h before reading on a Microbeta plate reader. Non-specific binding is determined by the addition of 10 μM cold L-691,831 compound.

[2] = test system: synthesis of LTB4 in human whole blood; experiment: human whole blood LTB4 production inhibition assay; format: cell-based; conditions: calcimycin stimulated, read-out: hWB LTB4 IC50
Description: Compounds are additionally tested in a human whole blood assay to determine their ability to inhibit the synthesis of LTB4 in a cellular system. Compounds are combined with heparinized human whole blood and incubated for 15 minutes at 37° C. Calcimycin (20 μM final, prepared in phosphate-buffered saline, pH 7.4) is then added and the mixture is incubated for another 30 minutes at 37° C. The samples are centrifuged for 5 min at low speed (1500×g) and the plasma layer is removed. Plasma LTB4 concentrations are then measured using an antibody-based homogenous time-resolved fluorescence method (CisBio, Bedford, Mass.).

Compound	IC50 [1] [nM]	IC50 [2] [nM]	inhibition at 1 µM ([1]; read-out: FLAP SPA inhibition at 1 uM) [%]
CC(C)[C@@](C)(c1ccc(-c2cnc(N)nc2)nc1)c1noc(-c2cnn(C(C)(C)CO)c2)n1 [Example 35, 2-[4-(3-{(2S)-2-[6-(2-aminopyrimidin-5-yl)pyridin-3-yl]-3-methylbutan-2-yl}-1,2,4-oxadiazol-5-yl)-1H-pyrazol-1-yl]-2-methylpropan-1-ol]	210	3200	–
Cc1ccc(C)n1-c1ncc(-c2ccc(C(C)(c3noc(-c4cn[nH]c4)n3)C(C)C)cn2)cn1 (stereo not drawn) [Example 36, 2-(2,5-dimethyl-1H-pyrrol-1-yl)-5-(5-{3-methyl-2-[5-(1H-pyrazol-4-yl)-1,2,4-oxadiazol-3-yl]butan-2-yl}pyridin-2-yl)pyrimidine]	–	> 5000	30
CC(C)[C@@](C)(c1ccc(-c2cnc(N)nc2)nc1)c1noc(-c2cnn(CC(C)(C)O)c2)n1 [Example 37, 1-[4-(3-{(2S)-2-[6-(2-aminopyrimidin-5-yl)pyridin-3-yl]-3-methylbutan-2-yl}-1,2,4-oxadiazol-5-yl)-1H-pyrazol-1-yl]-2-methylpropan-2-ol]	168	> 5000	–
CC(C)[C@](C)(c1ccc(-c2cnc(N)nc2)nc1)c1noc(-c2cnn(CC(C)(C)O)c2)n1 [Example 38, 1-[4-(3-{(2R)-2-[6-(2-aminopyrimidin-5-yl)pyridin-3-yl]-3-methylbutan-2-yl}-1,2,4-oxadiazol-5-yl)-1H-pyrazol-1-yl]-2-methylpropan-2-ol]	6.4	33	–
CC(C)C(C)(c1ccc(-c2cnc(N)nc2)nc1)c1noc(-c2cnn(CC(C)(C)C(=O)O)c2)n1 (stereo not drawn) [Example 39, 3-[4-(3-{2-[6-(2-aminopyrimidin-5-yl)pyridin-3-yl]-3-methylbutan-2-yl}-1,2,4-oxadiazol-5-yl)-1H-pyrazol-1-yl]-2,2-dimethylpropanoic acid]	20.4	> 5000	–
CCNc1cnc(-c2nc([C@](C)(c3ccc(-c4cnc(N)nc4)nc3)C(C)C)no2)cn1 [Example 40, 5-{5-[(2S)-2-{5-[5-(ethylamino)pyrazin-2-yl]-1,2,4-oxadiazol-3-yl}-3-methylbutan-2-yl]pyridin-2-yl}pyrimidin-2-amine]	7.9	100	–
CCNc1cnc(-c2nc([C@@](C)(c3ccc(-c4cnc(N)nc4)nc3)C(C)C)no2)cn1 [Example 41, 5-{5-[(2R)-2-{5-[5-(ethylamino)pyrazin-2-yl]-1,2,4-oxadiazol-3-yl}-3-methylbutan-2-yl]pyridin-2-yl}pyrimidin-2-amine]	1.8	34	–
CCNc1ccc(-c2nc(C(C)(c3ccc(-c4cnc(N)nc4)nc3)C(C)C)no2)nn1 (stereo not drawn) [Example 42, 6-(3-{2-[6-(2-aminopyrimidin-5-yl)pyridin-3-yl]-3-methylbutan-2-yl}-1,2,4-oxadiazol-5-yl)-N-ethylpyridazin-3-amine]	8.3	210	–
CC(C)[C@](C)(c1ccc(-c2cnc(N)nc2)nc1)c1noc(-c2cn[nH]c2)n1 [Example 43, 5-(5-{(2R)-3-methyl-2-[5-(1H-pyrazol-4-yl)-1,2,4-oxadiazol-3-yl]butan-2-yl}pyridin-2-yl)pyrimidin-2-amine]	1.2	32	–
CC(C)[C@](C)(c1ccc(-c2cnc(N)nc2)nc1)c1noc(-c2cnn(CC(F)F)c2)n1 [Example 44]	0.9	24	–
CC(C)[C@@](C)(c1ccc(-c2cnc(N)nc2)nc1)c1noc(-c2cnn(CC(F)F)c2)n1 [Example 45, 5-{5-[(2S)-2-{5-[1-(2,2-difluoroethyl)-1H-pyrazol-4-yl]-1,2,4-oxadiazol-3-yl}-3-methylbutan-2-yl]pyridin-2-yl}pyrimidin-2-amine]	141	1400	–
COCCOCCn1cc(-c2nc([C@@](C)(c3ccc(-c4cnc(N)nc4)nc3)C(C)C)no2)cn1 [Example 46, 5-{5-[(2R)-2-(5-{1-[2-(2-methoxyethoxy)ethyl]-1H-pyrazol-4-yl}-1,2,4-oxadiazol-3-yl)-3-methylbutan-2-yl]pyridin-2-yl}pyrimidin-2-amine]	5	98	–
COCCOCCn1cc(-c2nc([C@](C)(c3ccc(-c4cnc(N)nc4)nc3)C(C)C)no2)cn1 [Example 47, 5-{5-[(2S)-2-(5-{1-[2-(2-methoxyethoxy)ethyl]-1H-pyrazol-4-yl}-1,2,4-oxadiazol-3-yl)-3-methylbutan-2-yl]pyridin-2-yl}pyrimidin-2-amine]	180	2000	–
CC(C)[C@](C)(c1ccc(-c2cnc(N)nc2)nc1)c1noc(-c2cnn(CCF)c2)n1 [Example 48, 5-{5-[(2R)-2-{5-[1-(2-fluoroethyl)-1H-pyrazol-4-yl]-1,2,4-oxadiazol-3-yl}-3-methylbutan-2-yl]pyridin-2-yl}pyrimidin-2-amine]	2.6	20	–
CC(C)[C@@](C)(c1ccc(-c2cnc(N)nc2)nc1)c1noc(-c2cnn(CCF)c2)n1 [Example 49, 5-{5-[(2S)-2-{5-[1-(2-fluoroethyl)-1H-pyrazol-4-yl]-1,2,4-oxadiazol-3-yl}-3-methylbutan-2-yl]pyridin-2-yl}pyrimidin-2-amine]	80.9	1100	–
Cn1cc(-c2nc(C(C)(c3ccc(-c4cnc(N)nc4)nc3)C3CC3)no2)cn1 (stereo not drawn) [Example 50, 5-(5-{1-cyclopropyl-1-[5-(1-methyl-1H-pyrazol-4-yl)-1,2,4-oxadiazol-3-yl]ethyl}pyridin-2-yl)pyrimidin-2-amine]	9.5	110	–
CC(C)[C@](C)(c1ccc(-c2cnc(N)nc2)nc1)c1noc(-c2cnc(N3CCNCC3)cn2)n1 [Example 51, 5-{5-[(2R)-3-methyl-2-{5-[5-(piperazin-1-yl)pyrazin-2-yl]-1,2,4-oxadiazol-3-yl}butan-2-yl]pyridin-2-yl}pyrimidin-2-amine]	3	160	–
CC(C)[C@@](C)(c1ccc(-c2cnc(N)nc2)nc1)c1noc(-c2cnc(N3CCNCC3)cn2)n1 [Example 52, 5-{5-[(2S)-3-methyl-2-{5-[5-(piperazin-1-yl)pyrazin-2-yl]-1,2,4-oxadiazol-3-yl}butan-2-yl]pyridin-2-yl}pyrimidin-2-amine]	14	270	–
CNC(=O)Cn1cc(-c2nc([C@@](C)(c3ccc(-c4cnc(N)nc4)nc3)C(C)C)no2)cn1 [Example 53, 2-[4-(3-{(2R)-2-[6-(2-aminopyrimidin-5-yl)pyridin-3-yl]-3-methylbutan-2-yl}-1,2,4-oxadiazol-5-yl)-1H-pyrazol-1-yl]-N-methylacetamide]	12.7	230	–
CNC(=O)Cn1cc(-c2nc([C@](C)(c3ccc(-c4cnc(N)nc4)nc3)C(C)C)no2)cn1 [Example 54, 2-[4-(3-{(2S)-2-[6-(2-aminopyrimidin-5-yl)pyridin-3-yl]-3-methylbutan-2-yl}-1,2,4-oxadiazol-5-yl)-1H-pyrazol-1-yl]-N-methylacetamide]	70.7	750	–
COCCN(C)c1cnc(-c2nc([C@@](C)(c3ccc(-c4cnc(N)nc4)nc3)C(C)C)no2)cn1 [Example 55, 5-{5-[(2R)-2-(5-{5-[(2-methoxyethyl)(methyl)amino]pyrazin-2-yl}-1,2,4-oxadiazol-3-yl)-3-methylbutan-2-yl]pyridin-2-yl}pyrimidin-2-amine]	2.5	46	–
COCCN(C)c1cnc(-c2nc([C@](C)(c3ccc(-c4cnc(N)nc4)nc3)C(C)C)no2)cn1 [Example 56, 5-{5-[(2S)-2-(5-{5-[(2-methoxyethyl)(methyl)amino]pyrazin-2-yl}-1,2,4-oxadiazol-3-yl)-3-methylbutan-2-yl]pyridin-2-yl}pyrimidin-2-amine]	11.8	230	–
Cn1cc(-c2nc([C@@](C)(c3ccc(-c4cnc(N)nc4)nc3)C3CC3)no2)cn1 [Example 57, 5-(5-{(1R)-1-cyclopropyl-1-[5-(1-methyl-1H-pyrazol-4-yl)-1,2,4-oxadiazol-3-yl]ethyl}pyridin-2-yl)pyrimidin-2-amine]	16	33	–
Cn1cc(-c2nc([C@](C)(c3ccc(-c4cnc(N)nc4)nc3)C3CC3)no2)cn1 [Example 58, 5-(5-{(1S)-1-cyclopropyl-1-[5-(1-methyl-1H-pyrazol-4-yl)-1,2,4-oxadiazol-3-yl]ethyl}pyridin-2-yl)pyrimidin-2-amine]	230	980	–
